From the supplement of paper PMC10307832

Key:
Test in all cases: relative viability (nuclei count vs DMSO), 5 days (fraction); higher = more cells survive
[1] = compound: CC[C@@H](C)CNCC(=O)N1CCC2=C([C@@H]1COC3=CC=CC(=C3)C)C=CS2 [RU-SKI 43] + Cc1nc(Nc2ncc(C(=O)Nc3c(C)cccc3Cl)s2)cc(N2CCN(CCO)CC2)n1 [Dasatinib] (partner 0.075 µM)
How it was run: (§1)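 For relative viability, nuclei counts in treated wells were divided by those in vehicle wells. Lung cancer cell lines had been pin-tool dosed in 1536-well plates the day after seeding and cultured for 5 days, then fixed and stained in one step (final 0.05% Triton X-100, 1% formaldehyde, 1 ug/ml Hoechst) and imaged at 4×. Doses were one drug alone or a fixed anchor-drug dose plus five library-drug doses (not always all listed) in √10 steps, and values are duplicate-plate medians.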

[2] = compound: CCc1c2c(nc3ccc(OC(=O)N4CCC(N5CCCCC5)CC4)cc13)-c1cc3c(c(=O)n1C2)COC(=O)[C@]3(O)CC [Irinotecan] + Cc1nc(Nc2ncc(C(=O)Nc3c(C)cccc3Cl)s2)cc(N2CCN(CCO)CC2)n1 [Dasatinib] (partner 0.075 µM)
How it was run: as §1

[3] = compound: Cn1cc(-c2cnc3ccc4ccc(CS(=O)(=O)NCc5ccccn5)cc4c(=O)c3c2)cn1 [MK-8033] + CS(=O)(=O)CCNCc1ccc(-c2ccc3ncnc(Nc4ccc(OCc5cccc(F)c5)c(Cl)c4)c3c2)o1 [Lapatinib] (partner 2 µM)
How it was run: as §1

[4] = compound: Cn1cc(-c2cnc3ccc4ccc(CS(=O)(=O)NCc5ccccn5)cc4c(=O)c3c2)cn1 [MK-8033] + N=C(N)NC(=N)NCCc1ccccc1 [Phenformin] (partner 250 µM)
How it was run: as §1

Cell Line	relative viability ([1]; first compound 0.1 µM)	relative viability ([1]; first compound 0.3162 µM)	relative viability ([1]; first compound 1 µM)	relative viability ([1]; first compound 3.162 µM)	relative viability ([1]; first compound 10 µM)	relative viability ([2]; first compound 0.6325 µM)	relative viability ([2]; first compound 2 µM)	relative viability ([2]; first compound 6.325 µM)	relative viability ([2]; first compound 20 µM)	relative viability ([3]; first compound 0.02 µM)	relative viability ([3]; first compound 0.06325 µM)	relative viability ([3]; first compound 0.2 µM)	relative viability ([3]; first compound 0.6325 µM)	relative viability ([3]; first compound 2 µM)	relative viability ([4]; first compound 0.02 µM)	relative viability ([4]; first compound 0.06325 µM)	relative viability ([4]; first compound 0.2 µM)	relative viability ([4]; first compound 0.6325 µM)	relative viability ([4]; first compound 2 µM)
EMC-BAC-2	0.334	0.299	0.362	0.317	0.296	0.292	0.324	0.215	0.304	0.954	0.792	0.859	0.959	0.876	0.554	0.509	0.531	0.556	0.494
NCI-H1975	0.357	0.461	0.441	0.356	0.401	0.28	0.469	0.305	0.155	0.829	0.795	0.801	0.844	0.826	0.409	0.417	0.405		0.364
NCI-H1755	0.417	0.474	0.469	0.521	0.379	0.373	0.45	0.308	0.271	1.06	0.986	1.02	1.02	0.957	0.603	0.572	0.605	0.682	0.653
NCI-H2023	0.581	0.835	0.649	0.599	0.61	0.595	0.67	0.241	0.0645	0.923	0.701	0.624	0.59	0.523	0.41	0.348	0.348	0.356	0.306
EKVX	0.457	0.413	0.524	0.57	0.618		0.457	0.387	0.3	0.193	0.195	0.216	0.207	0.255	0.222	0.211	0.238	0.22	0.254
EPLC-272H	0.267	0.351	0.317	0.317	0.321	0.146	0.296	0.15	0.265	0.905		0.914	1.05	0.903	0.347	0.228	0.359	0.325	0.331
LCLC-97TM1	0.961	0.919	0.974	0.811	0.796	0.711	0.589	0.121	0.132	1.35	1.06	0.656	0.957	0.929	0.393	0.433	0.456	0.454	0.439
NCI-H2085	0.24	0.247	0.275	0.234	0.262	0.221	0.23	0.266	0.273	0.746	0.646	0.695	0.743	0.806	0.736	0.554	0.694	0.703	0.674
COR-L23	0.461	0.491	0.55	0.445	0.443	0.271	0.272	0.239	0.0978	1.17	0.997	0.7	0.941	0.901	0.41	0.422	0.402	0.432	0.421
HCC-15	0.709	0.635	0.689	0.633	0.64		0.523	0.196	0.123	0.849	0.801	0.785	0.805	0.856	0.511	0.467	0.421	0.45	0.482
RERF-LC-KJ	0.788	0.938	0.992	0.771	0.704	0.805	0.725	0.449	0.158	0.901	0.823	0.854	0.798	0.815	0.406	0.368	0.431	0.434	0.364
PC-3 [JPC-3]	1.07	1.09	0.973	0.968	0.939	0.882	0.915	0.693	0.345	0.449		0.444	0.477	0.482	0.482	0.426	0.469	0.475	0.503
NCI-H1563	0.4	0.409	0.534	0.404	0.467	0.392	0.458	0.44	0.514	0.965	0.833	0.966	0.864	0.886	0.711	0.669	0.602	0.679	0.642
NCI-H1355	0.674	0.868	0.781	0.761	0.739		0.85	0.511	0.272	0.979	0.865	0.865	0.988	0.909	0.444	0.401	0.424	0.435	0.432
NCI-H460	0.505	0.592	0.652	0.573	0.51	0.402	0.301	0.0681	0.0459	0.968	0.897	0.907	1.13	0.793	0.543	0.486	0.506	0.542	0.491
NCI-H2228	0.74	0.658	0.486	0.555	0.425	0.443	0.481	0.318	0.246	1.34	1.08	0.848	1	0.98	0.399	0.287	0.345	0.294	0.299
SK-LU-1	0.163	0.172	0.172	0.194	0.159	0.188	0.19	0.207	0.173	0.893	0.82	0.879	0.807	0.859	0.519	0.505	0.518	0.497	0.53
201T	0.565	0.547	0.624	0.627	0.56		0.552	0.529	0.36	1.03	0.906	0.995	1.07	1.07	0.499	0.448	0.39	0.436	0.469
SW 1573	0.558	0.816	0.497	0.491	0.311	0.317	0.544	0.161	0.108	1.06	1.09	0.976	1.14	0.994	0.374	0.311	0.367	0.326	0.249
HOP-62	0.741	0.709	0.875	0.641	0.603	0.549	0.589	0.276	0.201	1.01	0.753	0.786	1.07	0.987	0.674	0.646	0.631	0.703	0.639
NCI-H1651	0.439	0.393	0.412	0.332	0.491	0.319	0.311	0.281	0.112	0.842	0.658	0.874	0.892	0.762	0.429	0.29	0.346	0.312	0.304
CAL-12T	0.404	0.41	0.348	0.38	0.413		0.513	0.29	0.095	0.604	0.566	0.601	0.868	0.591	0.56	0.518	0.444	0.697	0.545
NCI-H2126	0.65	0.652	0.681	0.67	0.586		0.55	0.41	0.135	0.743	0.653	0.744	0.779	0.803	0.511	0.494	0.497	0.533	0.51
NCI-H650	0.484	0.45	0.468	0.398	0.45	0.34	0.396	0.215	0.245	0.759	0.966	0.838	0.845	0.921	0.441	0.445	0.464	0.437	0.47
COR-L 105	0.323	0.259	0.304	0.36	0.335	0.376	0.42	0.333	0.182	0.286	0.354	0.32	0.361	0.346	0.523	0.395	0.463	0.499	0.476
LK-2	0.308	0.248	0.315	0.295	0.251	0.251	0.298	0.249	0.287	0.968	0.807	0.963	1.1	0.807	0.708		0.326	0.437	0.305
NCI-H2347	0.34	0.23	0.364	0.203	0.293	0.307	0.242	0.245	0.372	0.872	0.858	0.903	0.781	0.914	0.442	0.37	0.57	0.59	0.428
PC-14	0.242	0.25	0.283	0.241	0.183	0.273	0.244	0.127	0.088	0.338	0.25	0.305	0.31	0.294	0.605	0.472	0.508	0.524	0.564
